Reference: paper PMC4581321, “Inhibitory Effects of Amorphigenin on the Mitochondrial Complex I of Culex pipiens pallens Coquillett (Diptera: Culicidae)” (International Journal of Molecular Sciences, 2015)
Converted amounts (≈) assume the structure as drawn. Read-outs that look alike come from different tables or passages of the source.

Legend:
[1] = test system: 3th instar larvae of Bombyx mori; conditions: cited from earlier work; for LC50: 3th instar larvae
[2] = test system: mammalian NADH-ubiquinone reductase; set-up: method as in PMID 7925463; conditions: relative to rotenone; cited from earlier work
[3] = test system: bovine heart mitochondrial complex I; conditions: cited from earlier work
[4] = test system: mitochondrial complex I of Cx. pipiens pallens; assay: In vivo inhibition of mitochondrial complex I activity (fourth-instar larvae exposed 24 h, then mitochondria isolated); set-up: species or system Culex pipiens pallens; conditions: for decrease of mitochondrial complex I activity compared with control: 24 h
[5] = test system: mitochondrial complex I of Cx. pipiens pallens; assay: In vitro inhibition of mitochondrial complex I activity (NADH oxidation at 340 nm, isolated larval mitochondria); format: biochemical, Culex pipiens pallens; conditions: NADH substrate; for IC50: isolated mitochondria, read-out: IC50 (μmol/L), in vitro
Protocol: The mitochondria of the fourth instar larvae of Cx. pipiens pallens were isolated according to the method of Akbar et al. with suitable modifications. The larvae were washed in a cold extraction medium (0.25 M sucrose solution containing 0.25% defatted BSA), then homogenized in a Potter–Elvehjem homogenizer under cold conditions. The homogenate was filtered through a moist muslin cloth and the filtrate centrifuged at 1000× g for 15 min at 4 °C. The residue was re-suspended in the extraction medium and centrifuged at 1000× g for 15 min at 4 °C. The supernatants from both centrifugations were combined and centrifuged at 12,000× g for 15 min at 4 °C. The mitochondrial pellet was re-suspended in the extraction medium, and stored at −80 °C until used. The protein concentration was determined by Smith’s method using BSA as the standard.
The mitochondrial complex I activity of Cx. pipiens pallens was determined as described by Birch-Machin et al. with adaptations for a 96-well format. It is well known that the mitochondrial complex I has two substrates, NADH and ubiquinone. […] The activity was measured by following the decrease in absorbance due to the oxidation of NADH at 340 nm with 425 nm as the reference wavelength. In brief, 20 μL of mitochondria and 160 μL of assay buffer containing 25 mM phosphate buffer (pH 7.2), 5 mM MgCl2, 2 mM NaN3 and 2.5 mg/mL BSA were added to each well of the 96-well plate, then the microplate was incubated for 20 min at 37 °C in a microplate reader (Spectramax 190 plate reader; Molecular Devices, Sunnyvale, CA, USA). Finally, the reaction was initiated by the addition of 10 μL of 0.13 mM NADH and measured for 5 min.
For the assay of in vitro inhibition of the mitochondrial complex I activities, 10 μL of different concentrations each of amorphigenin and rotenone were prepared in alcohol and diluted in 25 mM phosphate buffer (pH 7.2), then mixed with 10 μL of the mitochondria. The enzyme activity was immediately determined by the method as described above. For negative controls, 10 μL of 25 mM phosphate buffer (pH 7.2) instead of amorphigenin or rotenone were used in the assays. The inhibitory extent of the compounds was expressed as the inhibitor concentrations leading to 50% of the enzyme activity reduction (IC50).
Applying Microsoft Excel 2003 software (Microsoft, Redmond, WA, USA), the average enzyme activitie results, adjusted by Abbott, were subjected to probit analysis to calculate IC50 and correlation coefficient.

[6] = test system: larvae of Culex pipiens pallens; set-up: method as in PMID 25690287; conditions: cited from earlier work
[7] = test system: mitochondrial complex I of Cx. pipiens pallens; assay: Inhibition type and constants of mitochondrial complex I (enzyme-concentration plots, Lineweaver-Burk plots); format: biochemical, Culex pipiens pallens; conditions: for inhibition type: Lineweaver-Burk plots, NADH and endogenous ubiquinone as substrates; for reversibility of inhibition: enzyme activity vs enzyme concentration plots
From the text: The inhibition effect on the mitochondrial complex I by amorphigenin and rotenone was also studied. […] The plots yielded straight lines passing through the origin.
The inhibitory kinetics of the mitochondrial complex I by amorphigenin and rotenone were studied by Lineweaver–Burk plots. […] Under the experimental conditions employed, the oxidative reaction of NADH by the mitochondrial complex I followed Michaelis–Menten kinetics. The double-reciprocal plots yielded a family of straight lines with different slopes and intercepts but they intersected one another in the second quadrant. […] Equilibrium constants for inhibitor binding with the free enzyme (KI) and with the enzyme-substrate complex (KIS) can be calculated according to the Foumulations (1) and (2) based on the slope and the vertical intercept against the concentration of inhibitors in Figure 3, respectively. (1) Slope=Ks/Vm(1+[I]/KI) (2) Intercept=1/Vm(1+[I]/KIS)
Different concentrations of NADH were incubated with the mitochondria and assay buffer to examine the enzyme kinetics of NADH with and without the addition of various concentrations of rotenoids. The inhibition type of the compounds on the enzyme was assayed by Lineweaver-Burk plots. The inhibition constant was determined by plots of the apparent 1/Vm or Km/Vm versus concentration of the inhibitor [40, 58].

[8] = test system: acetylcholinesterase enzyme; set-up: method as in doi:10.1016/j.pestbp.2011.12.002; conditions: cited from earlier work
[9] = set-up: method as in earlier work; conditions: summer sunlight; cited from earlier work
[10] = test system: NADH-ubiquinone reductase of bovine heart submitochondrial particles; set-up: method as in PMID 7925463; conditions: against exogenous quinine DB and DPB; cited from earlier work
[11] = test system: mitochondrial complex I prepared from a pig's heart; set-up: method as in doi:10.1016/S0926-6593(65)80060-1; conditions: cited from earlier work
[12] = test system: mitochondrial complex I from submitochondrial particles of blow fly flight-muscle; set-up: method as in doi:10.1016/S0960-894X(00)80645-9; conditions: cited from earlier work
[13] = test system: fourth instar larvae of A. aegypti; set-up: method as in doi:10.1016/S0031-9422(00)83185-4; conditions: 10 ppm; cited from earlier work

## C=C(C)[C@@H]1Cc2c(ccc3c2O[C@@H]2COc4cc(OC)c(OC)cc4[C@@H]2C3=O)O1 [5′β- epirotenone]
[1]
  LC50: 225.70 µg/mL (≈ 572 µM)
[1]; relative to rotenone
  times less toxic than rotenone: about 24 times
[2]
  times less inhibiting than rotenone: about 1000 times

## C=C(CO)[C@H]1Cc2c(ccc3c2O[C@@H]2COc4cc(OC)c(OC)cc4[C@@H]2C3=O)O1 [Amorphigenin]
[3]
  inhibitory potency compared with rotenone: comparable with rotenone
[4]; 1.25 μmol/L, NADH substrate
  decrease of mitochondrial complex I activity compared with control: 1.52 fold
[4]; 2.5 μmol/L, NADH substrate
  decrease of mitochondrial complex I activity compared with control: 1.78 fold
[4]; 5 μmol/L, NADH substrate
  decrease of mitochondrial complex I activity compared with control: 2.43 fold
[4]; fourth-instar larvae exposed 24 h, NADH substrate, read-out: IC50 (μmol/L), in vivo
  IC50: 2.43 µmol/L
[5]; 2 μmol/L
  decrease of mitochondrial complex I activity compared with control: 27.38%
[5]; 3 μmol/L
  decrease of mitochondrial complex I activity compared with control: 50.00%
[5]; 4 μmol/L
  decrease of mitochondrial complex I activity compared with control: 70.24%
[5]
  IC50: 2.86 µmol/L
[6]
  LC50, larvicidal activity: 4.29 µg/mL (≈ 10.5 µM)
  LC90, larvicidal activity: 11.27 µg/mL (≈ 27.5 µM)
[7]
  inhibition type: mixed-I type
  reversibility of inhibition: reversible

## Cc1ccc(C(C)C)cc1O [Carvacrol, carvacrol]
[8]; house flies, ticks and cockroaches
  inhibition of acetylcholinesterase enzyme: slight inhibition
[8]; mosquito
  inhibition of acetylcholinesterase enzyme: did not inhibit

## C=C(C)[C@@H]1CCC2=CC(=O)C[C@@H](C)[C@]2(C)C1 [Nootkatone, nootkatone]
[8]; any of the four arthropod models tested
  inhibition of acetylcholinesterase enzyme: did not inhibit

## C=C(C)[C@H]1Cc2c(ccc3c2O[C@@H]2COc4cc(OC)c(OC)cc4[C@@H]2C3=O)O1 [Rotenone, reference compound]
[9]
  time until all toxicity is lost: 2 to 3 days
[4]; 1.25 μmol/L, NADH substrate
  decrease of mitochondrial complex I activity compared with control: 1.45 fold
[4]; 2.5 μmol/L, NADH substrate
  decrease of mitochondrial complex I activity compared with control: 1.77 fold
[4]; 5 μmol/L, NADH substrate
  decrease of mitochondrial complex I activity compared with control: 2.41 fold
[4]; read-out: IC50 (μmol/L), in vivo, fourth-instar larvae exposed 24 h, NADH substrate
  IC50: 2.52 µmol/L
[10]
  inhibition type: noncompetitive
[1]
  LC50: 9.33 µg/mL (≈ 23.7 µM)
[11]
  in vitro IC50: 1.8 × 10^−5 μmol/mg protein
[5]; 3 μmol/L
  decrease of mitochondrial complex I activity compared with control: significantly decreased
[5]; 4 μmol/L
  decrease of mitochondrial complex I activity compared with control: significantly decreased
[5]
  IC50: 3.14 µmol/L
[7]
  inhibition type: mixed-I type
  reversibility of inhibition: reversible
[12]
  inhibition type: reversible competitive inhibitor

## C=C(C)C1Cc2c(ccc3c2OC2COc4cc(OC)c(OC)cc4C2C3O)O1 (stereo not shown) [rotenone reduced with NaBH4]
[11]
  in vitro IC50: 2.0 × 10^−5 μmol/mg protein

## amorphigenin 8′-β-glucoside
[13]
  loss of the fourth instar larvae: 85%
  pupae formation: without the formation of pupae

## arylazidoamorphigenin
[3]
  inhibitory potency compared with rotenone: comparable with those of rotenone
